IC50 data for 20 compounds are collected here from PubChem BioAssay AID720578 (The Scripps Research Institute Molecular Screening Center, 2013).

SMILES strings stand for the structures. Activity calls are given as the source filed them. No rule for the calls is given here.

The IC50 is the point on the concentration scale where inhibition reaches its midpoint.

This assay has as its target Crimean-Congo hemorrhagic fever virus L protein viral ovarian tumor (vOTU) protease domain. Briefly: CCHFV vOTU protease inhibitor potency, dose response, biochemical, fluorescence, Pep-AMC substrate (AID 720578). As to conditions: recombinant CCHFV vOTU, Pep-AMC fluorescence cleavage.
As for `Cc1ccccc1NC1=C/C(=N\S(=O)(=O)c2cccs2)c2ccccc2C1=O`, the IC50 is 249 nM.

As to `O=C(COC(=O)c1ccc([N+](=O)[O-])s1)Nc1ccc(F)cc1`, the IC50 was 7800 nM.

`Cc1ccc(N2C(=O)[C@@H]3[C@H](C2=O)C2c4ccccc4C=CN2[C@@H]3C(=O)c2ccco2)cc1` (stereo not given in full): the IC50 was 4210 nM.

As to `Nc1scc2c(C(=O)N/N=C/c3ccc(Cl)cc3)nn(-c3ccccc3)c(=O)c12`, the IC50 entry was “inactive”.

For `Oc1c(C=Nc2cccc3nsnc23)ccc2ccccc12`, the IC50 result was “inactive”.

Regarding `CN(C)c1cccc2c1c(NS(=O)(=O)c1cn(C)cn1)nn2C`, the IC50 entry was “inactive”.

Consider `CC(C)(C)c1cc[n+](C2=C([O-])c3ccccc3C(=O)/C2=N\S(=O)(=O)c2cccs2)cc1`, for which the IC50 is 6780 nM.

As for `CN1/C(=C\C=C2C(=O)NC(=O)NC2=O)C(C)(C)c2ccccc21`, the IC50 result was “inactive”.

With `NC1=CC(=O)C(=O)c2cccnc21`, the IC50 was 1860 nM.

Turning to `COC1=C(Br)C(=O)c2nc(C)ccc2C1=O`, the IC50 was 9430 nM.

Take `COC1=C(N)C(=O)c2nc(C)ccc2C1=O`: the IC50 was 1370 nM.

As for `CC(=O)c1ccc(NC2=C(N3CCOCC3)C(=O)c3ccccc3C2=O)cc1`, the IC50 result was “inactive”.

With `CCCCCCCCCCOC(=O)Cn1c(COc2ccc(Cl)cc2)[n+](C)c2ccccc21`, the IC50 result was “inactive”.

Turning to `COc1ccc(Cc2nccc3cc(OC)c(OC)cc23)cc1OC`, the IC50 result is “inactive”.

Take `CC(=O)N(C1=C(Cl)C(=O)c2ccccc2C1=O)c1ccc(C(=O)O)cc1`: the IC50 was 2740 nM.

Turning to `COc1ccc(S(=O)(=O)/N=C2\C=C(Nc3ccc(O)cc3)C(=O)c3ccccc32)cc1`, the IC50 was 375 nM.

For the compound `CC(=O)N(/N=C1\Sc2ccccc2C1=O)c1cccc(C)c1`, the IC50 entry is “inactive”.

`O=C(COC(=O)c1ccc([N+](=O)[O-])s1)NCc1ccc(F)cc1`: the IC50 was 8080 nM.

As to `CC1=C(SCc2ccccc2)C(=O)c2ccccc2C1=O`, the IC50 was 2510 nM.

For `CN=c1sc2c(n1C)C(=O)c1ccccc1C2=O`, the IC50 is 1780 nM.
